Data published in patent US20110269825A1, “Modified Thromboxane A2 Receptor Promoter Sequence” (priority 2008, published 2011).

Experiments:
WT1 = assay: Confocal microscopy of WT1 localization in PMA-treated HEL cells; format: cell-based, human; details: PMA 100 nM, at 5 h and 8 h
Protocol: HEL 92.1.7 cells were seeded at ˜1×10^5 cells/ml in 2 ml normal growth media (RPMI 1640, 10% FBS) in 6-well plates containing Poly-L-lysine coated coverslips. Cells were grown at 37° C. for 24 h prior to incubating cells with 100 nM PMA for 0, 1, 5, 8, 16 and 24 h. Thereafter, cells were fixed in 3.4% paraformaldehyde and permeabilized with 0.2% Triton X-100 for 10 min on ice, after which cells were immunolabelled with anti-WT1 (1:1000 of 2 μg/μl stock) and AlexaFluor488 conjugated anti-rabbit, followed by counterstaining with DAPI (1 μg/ml in H2O). Images were obtained using Carl Zeiss Lazer Scanning System LSM510 and Zeiss LSM Imaging software for acquiring multi-channel images with filters appropriate for enhanced DAPI & AlexaFluor488.

[1] = system: −8460 to −8006 region of Prm1; assay: ChIP analysis of WT1, Egr1 and Sp1 binding to Prm1 in PMA-treated HEL cells; format: cell-based, human; details: PMA 100 nM for 5, 8 or 16 h
Protocol: Chromatin immunoprecipitation (ChIP) assays were performed essentially as described (Koch et al., 2007). Specifically, HEL cells (1×10^8) were pelleted, washed in ice-cold PBS and resuspended in serum-free RPMI 1640. Formaldehyde-cross linked chromatin was sonicated, as described (Koch et al., 2007), to generate fragments 500 bp to 1000 bp in length. Prior to immunoprecipitation (IP), chromatin was incubated with 60 μg normal rabbit IgG overnight at 4° C. on a rotisserie, after which 250 μl of salmon sperm DNA/protein A agarose beads (Millipore) were added and chromatin was precleared for 3 h at 4° C. with rotation. Thereafter, anti-WT1, anti-NF-E2, anti-Sp1, anti-Egr1, anti-GATA-1, anti-Ets-1 ([…]), normal rabbit IgG (10 μg), or a “no antibody” control were used for immunoprecipitation. Following elution, cross-links were reversed by incubation at 65° C. overnight followed by protease digestion with proteinase K (Sigma; 9 μl of 10 mg/ml) at 45° C. for 7 h. After precipitation, samples were resuspended in 50 μl dH2O. PCR analysis was carried out using 2-3 μl of ChIP sample as template or, as a positive control, with an equivalent volume of a 1:20 dilution of the input chromatin DNA. The identities of the primers used for the ChIP PCR reactions, as well as their sequences and corresponding nucleotides within Prm1 are listed below. […]

## CCCCCCCCCCCCCC(=O)O[C@@H]1[C@@H](C)[C@@]2(O)[C@@H](C=C(CO)C[C@]3(O)C(=O)C(C)=C[C@@H]23)[C@@H]2C(C)(C)[C@]12OC(C)=O [PMA, phorbol 12-myristate 13-acetate]
WT1
  Intracellular localization of WT1: redistribution of WT1 to the cytosolic fraction
[1]
  Binding of WT1, Egr1 and Sp1 to Prm1 chromatin: substantial changes in the pattern of binding of these factors to distal upstream GC-enriched elements
